The data set is described as follows: Cyclic voltammetry of Mn(II) complexes in aqueous solution. The format is physicochemical. The settings on record: aqueous 0.15 M KCl; for ΔE (peak separation): 100 mV s^–1; for Eox (oxidation peak) / Ered (reduction peak): 100 mV s^–1 scan rate; for Eox (oxidation peak) / Ered (reduction peak) / E1/2: vs Ag/AgCl. As for the experimental part: All solvents (VWR International, Penta) and chemicals were purchased from commercial sources (Acros Organics, Merck) and used as received. 2-(Chloromethyl)pyridine hydrochloride and 2-(chloromethyl)benzimidazole were prepared according to the previously described procedures.[31],[32] The parent ligand 15-pyN3O2 was synthesized as previously described in the literature.[28],[33] Mass spectra were collected using an LCQ Fleet mass spectrometer (Thermo Scientific, Waltham, MA) equipped with an electrospray ion source and a three-dimensional (3D) ion-trap detector in the positive/negative mode (see SI, Figures S1 and S2). ^1H and ^13C NMR spectra were obtained using a 400-MR NMR spectrometer (Varian, Palo, Alto, CA) at 25 °C. The multiplicity of the signals is indicated as follows: s, singlet; d, doublet; t, triplet; m, multiplet; and bs, broad singlet. Deuterated solvent chloroform-d (99.9% of D) was purchased from Sigma-Aldrich and used as received. The atom numbering schemes used for the interpretation of NMR data are shown in Scheme 2. The carbon and hydrogen atoms were assigned according to the spectra obtained from the two-dimensional correlation experiments ^1H–^1H gs-COSY, ^1H–^13C gs-HMQC, and ^1H–^13C gs-HMBC (see SI, Figures S3–S10). Cyclic voltammetry was performed on a CHI600C electrochemical analyzer (CH Instruments, Inc., Austin, TX). IR spectra were measured on a Jasco FT/IR-4700 spectrometer (Jasco, Easton, MD) using the ATR technique on a diamond plate in the spectral range 4000–400 cm^–1 (see SI Figure S11). A conventional electrochemical three-electrode-type cell with a glassy carbon working electrode, a platinum wire auxiliary electrode, and either Ag/Ag^+ reference electrode (0.01 M AgNO3 in 0.1 M tetrabutylammonium perchlorate (TBAP) in CH3CN) or Ag/AgCl reference electrode filled with 3 M KCl solution was used during the measurements with the scan rate of 100 mV s^–1. The measurements were performed in an argon atmosphere either in 0.1 M TBAP solution in CH3CN or in 0.15 M aqueous solution of KCl as a supporting electrolyte with a scan rate of 100 mV s^–1 and at 1.5 mM concentration of the complexes. The internal ferrocene/ferrocenium standard (E1/2 = 0.459 V vs Ag/Ag^+ electrode, ΔE = 77 mV) was employed for measurements in CH3CN.
Thus, we carried out CV experiments on an aqueous solution of the Mn(II) complexes in 0.15 M KCl. […] The cyclic voltammogram of MnL3 is similar, showing an oxidation peak at Eox = +1004 mV and a reduction peak at Ered = 782 mV (E1/2 = 893 mV vs Ag/AgCl, ΔE = 222 mV) (Figure S23). The large separation between the oxidation and reduction peaks (ΔE) is characteristic of a quasi-reversible system. The irreversibility of the Mn(II)/Mn(III) redox process is quite common due to the lack of ligand-field stabilization for the high-spin d^5 configuration of Mn(II), with a consequent large inner-sphere contribution to electron transfer.[57] Even larger separation between the oxidation and reduction peaks was observed when the complexes were measured in acetonitrile (Figures S24 and S25 in SI).

Take `O.[Mn+2].c1cc2nc(c1)CN(Cc1nc3ccccc3[nH]1)CCOCCOCCNC2` [MnL3]: the “ΔE (peak separation)” value turned out to be 222 mV, the “Eox (oxidation peak)” value was “+1004 mV”, the “Ered (reduction peak)” value amounted to 782 mV and the E1/2 is 893 mV.
Turning to `O.[Mn+2].c1ccc(CN2CCOCCOCCNCc3cccc(n3)C2)nc1` [MnL2], the “ΔE (peak separation)” value worked out at 144 mV, the “Eox (oxidation peak)” value is “+994 mV”, the “Ered (reduction peak)” value is given as “+850 mV” and the E1/2 worked out at 922 mV.

The record behind these values is PMC12042267, “Expanding the Family of Monosubstituted 15-Membered Pyridine-Based Macrocyclic Ligands for Mn(II) Complexation in the Context of MRI” (Inorganic Chemistry, 2025).
